Values joined by “and” are separate entries in the source; they are usually repeats but may differ in a detail not shown here. Equal values may be shown once. Toxic doses and inconclusive results are not listed. Cut-off read from the data, not from the text of the source: active = T/C of 150% or more; inactive = T/C below 125%.
Tested on: L1210 leukemia ip in BDF1 mice, survival T/C
Assay: NCI In Vivo Anticancer Drug Screen. Data for tumor model L1210 Leukemia (intraperitoneal) in B6D2F1 (BDF1) mice
Details: endpoint: mean survival time, higher = longer survival
In short: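 Read-out is survival time, reported as the treated-group measurement over the vehicle-control measurement.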

Measured: T/C

CN(Cc1cnc2nc(N)nc(N)c2n1)c1c(Cl)cc(C(=O)NC(CCC(=O)O)C(=O)O)cc1Cl (configuration not stated)
inactive: dose: 0.05 mg/kg/injection, schedule: Q03HX024 (ip), vehicle: alkali diluted with saline 108 % of control | dose: 0.12 mg/kg/injection, schedule: Q01DX Z (ip), vehicle: saline 103 % of control | dose: 0.2 mg/kg/injection, schedule: Q03HX024 (ip), vehicle: alkali diluted with saline 121 % of control | dose: 0.31 mg/kg/injection, schedule: Q03HX008 (ip), vehicle: carboxymethylcellulose (CMC) 114 % of control | dose: 0.39 mg/kg/injection, schedule: Q03HX024 (ip), vehicle: carboxymethylcellulose (CMC) 111 % of control | dose: 0.5 mg/kg/injection, schedule: Q01DX Z (ip), vehicle: saline 106 % of control | dose: 0.5 mg/kg/injection, schedule: Q01DX Z (sc), vehicle: alkali diluted with saline 102 % of control | dose: 0.6 mg/kg/injection, schedule: Q## X008 (ip), vehicle: alkali diluted with saline 106 % of control | dose: 0.63 mg/kg/injection, schedule: Q03HX008 (ip), vehicle: carboxymethylcellulose (CMC) 119 % of control | dose: 0.78 mg/kg/injection, schedule: Q03HX024 (ip), vehicle: carboxymethylcellulose (CMC) 114 % of control | dose: 1.0 mg/kg/injection, schedule: Q01DX Z (im), vehicle: alkali diluted with saline 107 % of control | dose: 1.0 mg/kg/injection, schedule: Q01DX Z (ip), vehicle: saline 122 % of control | dose: 1.0 mg/kg/injection, schedule: Q01DX Z (sc), vehicle: alkali diluted with saline 95 % of control | dose: 2.5 mg/kg/injection, schedule: Q01DX005 (ip), vehicle: carboxymethylcellulose (CMC) 117 % of control | dose: 2.5 mg/kg/injection, schedule: Q01DX Z (im), vehicle: alkali diluted with saline 102 % of control | dose: 2.5 mg/kg/injection, schedule: Q01DX Z (sc), vehicle: alkali diluted with saline 106 % of control | dose: 4.0 mg/kg/injection, schedule: Q## X008 (ip), vehicle: alkali diluted with saline 104 % of control | dose: 5.0 mg/kg/injection, schedule: Q01DX005 (ip), vehicle: carboxymethylcellulose (CMC) 120 % of control | dose: 5.0 mg/kg/injection, schedule: Q01DX009 (ip), vehicle: carboxymethylcellulose (CMC) 121 % of control | dose: 5.0 mg/kg/injection, schedule: Q01DX009 (sc), vehicle: carboxymethylcellulose (CMC) 115 % of control | dose: 5.0 mg/kg/injection, schedule: Q01DX Z (im), vehicle: alkali diluted with saline 112 % of control | dose: 5.0 mg/kg/injection, schedule: Q01DX Z (oral), vehicle: alkali diluted with saline 120 % of control | dose: 5.0 mg/kg/injection, schedule: Q01DX Z (sc), vehicle: alkali diluted with saline 105 % of control | dose: 6.25 mg/kg/injection, schedule: Q03HX024 (ip), vehicle: carboxymethylcellulose (CMC) 116 % of control | dose: 10.0 mg/kg/injection, schedule: Q01DX006 (iv), vehicle: alkali diluted with saline 106 % of control | dose: 10.0 mg/kg/injection, schedule: Q01DX Z (oral), vehicle: alkali diluted with saline 120 % of control | dose: 12.5 mg/kg/injection, schedule: Q03HX024 (ip), vehicle: carboxymethylcellulose (CMC) 122 % of control | dose: 15.0 mg/kg/injection, schedule: Q## X008 (ip), vehicle: alkali diluted with saline 114 % of control | dose: 20.0 mg/kg/injection, schedule: Q01DX006 (iv), vehicle: alkali diluted with saline 123 % of control | dose: 20.0 mg/kg/injection, schedule: Q01DX Z (oral), vehicle: alkali diluted with saline 115 % of control | dose: 20.0 mg/kg/injection, schedule: Q#A X Z (ip), vehicle: olive oil, sesame oil, peanut oil 116 % of control | dose: 25.0 mg/kg/injection, schedule: Q04DX003 (ip), vehicle: alkali diluted with saline 112 % of control | dose: 25.0 mg/kg/injection, schedule: Q04DX003 (ip), vehicle: carboxymethylcellulose (CMC) 117 % of control | dose: 25.0 mg/kg/injection, schedule: Q## X003 (ip), vehicle: other 106 % of control | dose: 25.0 mg/kg/injection, schedule: Q## X016 (ip), vehicle: other 115 % of control | dose: 30.0 mg/kg/injection, schedule: Q03DX Z (ip), vehicle: methylcellulose (MC) 122 % of control | dose: 40.0 mg/kg/injection, schedule: Q01DX Z (oral), vehicle: alkali diluted with saline 102 % of control | dose: 50.0 mg/kg/injection, schedule: Q## X003 (ip), vehicle: other 124 % of control | dose: 50.0 mg/kg/injection, schedule: Q## X016 (ip), vehicle: other 121 % of control | dose: 70.0 mg/kg/injection, schedule: Q01DX001 (ip), vehicle: methylcellulose (MC) 116 % of control | dose: 70.0 mg/kg/injection, schedule: Q01DX Z (ip), vehicle: clinical formulation 103 % of control | dose: 70.0 mg/kg/injection, schedule: Q07DX Z (ip), vehicle: methylcellulose (MC) 116 % of control | dose: 80.0 mg/kg/injection, schedule: Q01DX Z (im), vehicle: alkali diluted with saline 113 % of control | dose: 80.0 mg/kg/injection, schedule: Q01DX Z (oral), vehicle: alkali diluted with saline 94 % of control | dose: 80.0 mg/kg/injection, schedule: Q01DX Z (sc), vehicle: alkali diluted with saline 112 % of control | dose: 90.0 mg/kg/injection, schedule: Q01DX Z (ip), vehicle: saline 94 % of control | dose: 100.0 mg/kg/injection, schedule: Q01DX001 (sc), vehicle: carboxymethylcellulose (CMC) 111 % of control | dose: 100.0 mg/kg/injection, schedule: Q04DX003 (ip), vehicle: alkali diluted with saline 124 % of control | dose: 120.0 mg/kg/injection, schedule: Q01DX001 (ip), vehicle: carboxymethylcellulose (CMC) 117 % of control | dose: 120.0 mg/kg/injection, schedule: Q## X008 (ip), vehicle: other 112 % of control | dose: 140.0 mg/kg/injection, schedule: Q01DX001 (ip), vehicle: methylcellulose (MC) 116 % of control | dose: 140.0 mg/kg/injection, schedule: Q01DX Z (ip), vehicle: clinical formulation 110 % of control | dose: 140.0 mg/kg/injection, schedule: Q07DX Z (ip), vehicle: methylcellulose (MC) 123 % of control | dose: 200.0 mg/kg/injection, schedule: Q01DX001 (sc), vehicle: carboxymethylcellulose (CMC) 114 % of control | dose: 200.0 mg/kg/injection, schedule: Q01DX001 (sc), vehicle: other 121 % of control | dose: 240.0 mg/kg/injection, schedule: Q01DX001 (ip), vehicle: alkali diluted with saline 115 % of control | dose: 240.0 mg/kg/injection, schedule: Q01DX001 (ip), vehicle: other 113 % of control | dose: 240.0 mg/kg/injection, schedule: Q## X008 (ip), vehicle: other 112 % of control | dose: 285.0 mg/kg/injection, schedule: Q01DX001 (ip), vehicle: carboxymethylcellulose (CMC) 110 % of control | dose: 400.0 mg/kg/injection, schedule: Q01DX001 (ip), vehicle: olive oil, sesame oil, peanut oil 114 % of control | dose: 400.0 mg/kg/injection, schedule: Q01DX001 (sc), vehicle: other 121 % of control | dose: 400.0 mg/kg/injection, schedule: Q07DX Z (ip), vehicle: olive oil, sesame oil, peanut oil 97 % of control | dose: 434.0 mg/kg/injection, schedule: Q01DX001 (ip), vehicle: carboxymethylcellulose (CMC) 121 % of control | dose: 480.0 mg/kg/injection, schedule: Q01DX001 (ip), vehicle: alkali diluted with saline 122 % of control | dose: 560.0 mg/kg/injection, schedule: Q01DX001 (ip), vehicle: methylcellulose (MC) 123 % of control | dose: 800.0 mg/kg/injection, schedule: Q01DX001 (ip), vehicle: olive oil, sesame oil, peanut oil 109 % of control and 120 % of control | dose: 800.0 mg/kg/injection, schedule: Q07DX Z (ip), vehicle: olive oil, sesame oil, peanut oil 106 % of control | dose: 1200.0 mg/kg/injection, schedule: Q01DX001 (ip), vehicle: olive oil, sesame oil, peanut oil 115 % of control and 122 % of control | dose: 1200.0 mg/kg/injection, schedule: Q07DX Z (ip), vehicle: olive oil, sesame oil, peanut oil 95 % of control | dose: 1600.0 mg/kg/injection, schedule: Q04DX003 (ip), vehicle: alkali diluted with saline 98 % of control | dose: 1600.0 mg/kg/injection, schedule: Q07DX Z (ip), vehicle: olive oil, sesame oil, peanut oil 101 % of control
active: dose: 3.0 mg/kg/injection, schedule: Q01DX Z (ip), vehicle: carboxymethylcellulose (CMC) 159 % of control | dose: 3.0 mg/kg/injection, schedule: Q01DX Z (ip), vehicle: saline 169 % of control | dose: 5.0 mg/kg/injection, schedule: Q#A X Z (ip), vehicle: methylcellulose (MC) 162 % of control | dose: 6.0 mg/kg/injection, schedule: Q01DX Z (ip), vehicle: carboxymethylcellulose (CMC) 161 % of control | dose: 9.0 mg/kg/injection, schedule: Q01DX Z (ip), vehicle: clinical formulation 157 % of control | dose: 10.0 mg/kg/injection, schedule: Q01DX Z (im), vehicle: alkali diluted with saline 159 % of control | dose: 10.0 mg/kg/injection, schedule: Q01DX Z (ip), vehicle: saline 167 % of control | dose: 10.0 mg/kg/injection, schedule: Q01DX Z (sc), vehicle: alkali diluted with saline 159 % of control | dose: 20.0 mg/kg/injection, schedule: Q01DX007 (ip), vehicle: other 160 % of control | dose: 20.0 mg/kg/injection, schedule: Q01DX009 (ip), vehicle: carboxymethylcellulose (CMC) 153 % of control | dose: 30.0 mg/kg/injection, schedule: Q01DX Z (ip), vehicle: carboxymethylcellulose (CMC) 159 % of control | dose: 40.0 mg/kg/injection, schedule: Q01DX007 (ip), vehicle: other 163 % of control | dose: 40.0 mg/kg/injection, schedule: Q01DX009 (ip), vehicle: carboxymethylcellulose (CMC) 161 % of control | dose: 40.0 mg/kg/injection, schedule: Q01DX Z (ip), vehicle: methylcellulose (MC) 169 % of control | dose: 67.5 mg/kg/injection, schedule: Q01DX Z (ip), vehicle: saline 150 % of control | dose: 80.0 mg/kg/injection, schedule: Q01DX005 (ip), vehicle: carboxymethylcellulose (CMC) 158 % of control | dose: 80.0 mg/kg/injection, schedule: Q01DX006 (iv), vehicle: alkali diluted with saline 165 % of control | dose: 120.0 mg/kg/injection, schedule: Q03DX Z (ip), vehicle: methylcellulose (MC) 153 % of control | dose: 200.0 mg/kg/injection, schedule: Q04DX003 (ip), vehicle: carboxymethylcellulose (CMC) 157 % of control | dose: 200.0 mg/kg/injection, schedule: Q## X016 (ip), vehicle: other 162 % of control | dose: 400.0 mg/kg/injection, schedule: Q04DX003 (ip), vehicle: alkali diluted with saline 166 % of control | dose: 800.0 mg/kg/injection, schedule: Q04DX003 (ip), vehicle: alkali diluted with saline 168 % of control | dose: 800.0 mg/kg/injection, schedule: Q## X003 (ip), vehicle: other 169 % of control | dose: 800.0 mg/kg/injection, schedule: Q## X016 (ip), vehicle: other 165 % of control | dose: 875.0 mg/kg/injection, schedule: Q01DX001 (ip), vehicle: alkali diluted with saline 158 % of control | dose: 960.0 mg/kg/injection, schedule: Q01DX001 (ip), vehicle: carboxymethylcellulose (CMC) 158 % of control
